Test results reported in patent US10905738B2, “Synthetic peptides, prodrugs, pharmaceutical compositions and uses” (Biozeus Desenvolvimento De Produtos Biofarmacêuticos, priority 2018, dated 2021).
Where a SMILES comes first, the peptide text is derived from it.

Experiments:
[1] = test system: monocrotaline-induced model of pulmonary arterial hypertension (PAH); test: hemodynamic parameters and heart remodeling in monocrotaline-induced model of PAH; type: in vivo, male Wistar Rats; conditions: 0.06 mg/kg intranasal twice daily for 14 days
Description: The monocrotaline (MCT) model is the most widely used animal model of PAH, being the oldest in existence and best described among the available models. This model offers the advantage of mimicking several key aspects of human PAH, including vascular remodeling, proliferation of smooth muscle cells, endothelial dysfunction, up-regulation of inflammatory cytokines, and right ventricle failure, after a single intraperitoneal or subcutaneous MCT injection (GOMEZ-ARROYO, J. G., FARKAS, L., ALHUSSAINI, A. A., FARKAS, D., KRASKAUSKAS, D., VOELKEL, N. F., BOGAARD, H. J. The Monocrotaline Model of Pulmonary Hypertension in Perspective. Am J Physiol Lund Cell Mol Physiol, 302(4): L363-9. 2012).
The currently preferred species for the study of MCT-induced PAH is the rat, with clinical signs of the illness manifesting in 3-7 days after the MCT injection in the form of anorexia, listlessness, failure to gain weight, and tachypnea. As the lung injury and vascular remodeling progress, the animals develop variable degrees of dyspnea, weakness, diarrhea and peripheral cyanosis (SCHOENTAL R., HEAD, M. A. Pathological changes in rats as a result of treatment with monocrotaline. Br J Cancer, 9(1):229-37. 1955). One week after the MCT injection, endothelial damage, inflammatory infiltration, and edema can be observed, but no increase in pulmonary arterial pressure (PAP). After two weeks, PAP is increased leading to right ventricle (RV) hypertrophy by the third week after drug administration (WEST, J., HEMMES, A. Experimental and transgenic models of pulmonary hypertension. Compr Physiol, 1(2):769-82. 2011).
To assess the potential benefit of SEQ ID NO: 19 in the treatment of PAH, we used adult healthy male Wistar Rats, which were then randomized into two groups: monocrotaline-induced PAH (MCT, n=14), in which animals received 60 mg/kg of MCT intraperitoneally (C2401, Sigma Chemical Co., St Louis, Mo., USA, Batch Number: WXBC4737V) and 2) control (CTRL, n=7), in which animals received a similar volume of saline solution intraperitoneally. This would be day 0 of the study. On the same day, prior to being randomized, the animals were subjected to echocardiographic analysis to establish a baseline. On day 14, another echocardiography was done, and PAH animals were further randomized to receive intranasal saline (SAL) or SEQ ID NO: 19 (0.06 mg/kg), twice daily for 14 days. On day 28, echocardiographies were repeated, RV exit area, left ventricle (LV) area, and PAT/PET (pulmonary arterial acceleration time (PAT)/pulmonary arterial ejection time (PET) ratio). In the PAH disease, the increase of PAP leads to an increase in RV area due to the increased pressure, and a decrease in the LV area, due to a reduction in blood flow to the left ventricle. […] Hemodynamic parameters were measured by invasive RV catheterization, including the systolic pressure of RV (RVSP) and the dP/dt ratio (a derivative of pressure/derivative of maximum time), which is correlated to the pressure in the RV.
The experiments were analyzed with two-way ANOVA, followed by Bonferroni's post-test to determine statistical significance. […]

[2] = test system: monocrotaline-induced model of PAH; test: anti-inflammatory effect in monocrotaline-induced model of PAH (lymph node weight, heart homogenate cytokines by ELISA); type: in vivo, male Wistar Rats; conditions: 0.06 mg/kg, MCT rats
Description: In the experiment described in example 5, the animals were killed for postmortem analyses of inflammatory markers.
In 1 out of 5 patients with PAH, the mediastinal lymph nodes are enlarged due to inflammation-related edema (BERGIN, C. J., PARK, K. J. Lymph node enlargement in pulmonary arterial hypertension due to chronic thromboembolism. J Med Imaging Radiat Oncol, 52(1):18-23. 2008). Edematous organs weigh more, due to the increased liquid content, therefore we weighed several organs of the animals of example 5 post-euthanasia.
Samples of hearts of the monocrotaline study were investigated to uncover the potential anti-inflammatory action of SEQ ID NO: 19. Hearts were kept on ice during all sample homogenization processes. Lysis buffer containing 1% protease inhibitor cocktail (Sigma) diluted in phosphate-buffered saline (PBS) was added in a proportion of 1 mL for each sample. Sodium orthovanadate (SIGMA) 1 mM was also added. Tissues were homogenized and then centrifuged at 10,000 g for 10 min. Supernatants of each sample were collected into sterile identified tubes for measurements of total protein and cytokine levels (tumor necrosis factor (TNF)-α, interferon (INF)-γ, and interleukin (IL)-1β).
Total protein values in the samples were measured using the Bradford assay (BioRad, Hercules, Calif., USA), according to manufacturer's instructions. Briefly, the protocol was performed in a microplate in a final volume of 150 μl. A calibration curve linear range between 0.025 and 2.0 mg/ml was prepared with bovine serum albumin (BSA, SIGMA). Protein solutions were assayed in duplicate. Samples were diluted 20-fold into lysis buffer, and then 25 μl from these samples was loaded into each well. Using a multichannel pipet, 125 μl of Quick Start™ Bradford 1× Dye Reagent solution was added to yield a final volume of 150 μl. The samples were incubated at room temperature for 5 min, and the absorbance was then measured with a spectrophotometer at 595 nm (SpectraMax Microplate reader, Molecular Devices, San Jose, Calif., USA). The standard curve was plotted as a linear regression line that was interpolated with the mean absorbance of each sample in order to find a sample's total protein concentration expressed as mg/ml.
Concentrations of TNF-α, INF-γ, and IL-1β were measured using an enzyme-linked immunosorbent assay (ELISA) for heart homogenates. TNF-α (Catalog #900-K54) and INF-γ (Catalog #900-K98) kits were purchased from Peprotech (Rocky Hill, […]., USA) while the IL-1β (DY401) kit was from R&D Systems (Minneapolis, Minn., USA). The assays were performed in accordance with the manufacturer's recommendations.
Data analyses were performed with a statistical software package (Prism version 5.0, Graph-Pad Software, San Diego, Calif.). Data were expressed as mean±SEM. […]

[3] = RV catheterization, vs MCT+Vehicle
[4] = echocardiography, vs MCT+vehicle

CC[C@H](C)[C@H](NC(=O)[C@H](Cc1c[nH]c2ccccc12)NC(=O)[C@H](Cc1ccccc1)NC(C)=O)C(=O)N[C@@H](C)C(=O)N[C@@H](Cc1c[nH]c2ccccc12)C(=O)N[C@@H](Cc1ccc(O)cc1)C(=O)N[C@@H](CCCCN)C(=O)N[C@@H](CC(C)C)C(=O)N[C@@H](C)C(N)=O [SEQ ID NO: 19, Ac-Phe-Trp-Ile-Ala-Trp-Tyr-Lys-Leu-Ala-NH2] (Ac-FWIAWYKLA-NH2)
dP/dt Max ratio [1, 3]: decrease
systolic pressure of RV (RVSP) [1, 3]: decrease in RVSP
LV area [1, 4]: increase in LV area
PAT/PET ratio [1, 4]: increases the PAT/PET ratio to values similar to the non-treated group (control)
RV exit area [1, 4]: decrease in RV exit area
IL-1β in heart homogenates ([2]; ELISA): decreases the cytokines to values similar to control
INF-γ in heart homogenates ([2]; ELISA): decreases the cytokines to values similar to control
TNF-α in heart homogenates ([2]; ELISA): decreases the cytokines to values similar to control
edematous weight gain of mediastinal lymph nodes ([2]; post-euthanasia organ weight): able to reduce the edematous weight gain
